In patent US8715658B2, “Methods for treating conditions mediated by the inflammatory cytokine cascade using GAPDH inhibitors” (The Feinstein Institute for Medical Research, priority 2009, dated 2014):

Tests used:
human whole blood = experiment: Human whole blood assay, plasma TNF by ELISA; assay type: cell-based
Protocol: Human whole blood was obtained from anonymous donors from the Long Island Blood Services. The blood was aliquotted into 48-well plates at 250 μl/well. Aliquots were then treated as indicated at 37° C. for four hours. Samples were centrifuged to separate plasma at 5000 rpm for five minutes at room temperature. TNF levels in the plasma were determined by ELISA as described above.
IgG from α-GAPDH #4418 antiserum was purified using protein A/G sepharose (Pierce). Purified IgG was used to test for the ability of α-GAPDH #4418 to neutralize GAPDH activity. Six conditions were tested: GAPDH (10 μg/ml) alone, GAPDH plus non-specific rabbit IgG (100 ug/ml), GAPDH plus α-GAPDH #4418 (100 ug/ml), α-GAPDH #4418 alone, non-specific rabbit IgG alone. The GAPDH plus α-GAPDH #4418 treatment was pre-incubated at room temperature for 30 minutes prior to applying the mixture to the whole blood.

mice = experiment: GST-GAPDH challenge in mice, clinical sickness scoring; assay type: in vivo; conditions: FIG. 9
cultured macrophages = experiment: GST-GAPDH on cultured macrophages, inflammatory responses; assay type: cell-based; conditions: FIG. 7
RAW264.7 cells = RAW264.7 cells challenged with GAPDH for cytokine (TNF) elicitation, ELISA; assay type: cell-based, murine; conditions: 50 μg/ml GAPDH, 4 hours, FIG. 2
Protocol: Murine macrophage-like RAW264.7 cells were obtained from the American Type Tissue collection (ATTC). The RAW264.7 cells were cultured in Dulbecco's Modified Essential Medium (DMEM) (Gibco) supplemented with 1% heat-inactivated fetal bovine serum (FBS) (BioWhittaker), and 2 mM L-glutamine, and 100 μg/ml penicillin and streptomycin (all from Sigma). Raw264.7 cultures were incubated at 37° C. under 5% CO2. The cells were serum-deprived in 1% FBS medium for the purpose of slowing the cell cycle to synchronize the cell population. Serum deprivation of the cells also limits available growth factors, minimizing the level of intracellular signaling in pathways that lead to the activation of mitogen-activated protein (MAP) kinases. It is interesting to note that immune challenges such as bacterial endotoxin (LPS) also activate MAP kinases to generate inflammatory responses, and thus high levels of FBS would interfere with the detection of MAP kinase signals that are elicited by the specific immune challenges that this study investigates. RAW264.7 cells were used at approximately 70% confluence, and all treatments were carried out in serum-free Opti-MEM I medium.
RAW264.7 cells at approximately 70% confluence were kept in serum-free Opti-MEM I for 20 minutes prior to treatments. […]

Peritoneal macrophages = experiment: TNF response of peritoneal macrophages from wildtype, TLR2, TLR4 or RAGE deficient mice to GAPDH; assay type: cell-based; conditions: FIG. 3; for TNF release: 50 μg/ml GAPDH
Protocol: Peritoneal macrophages harvested from Wildtype, Toll-like receptor (TLR) 2, TLR4, or Receptor for Advanced Glycation Endproducts (RAGE) deficient mice were resuspended in RPMI1640 medium (Gibco) supplemented with 10% FBS and 2 mM L-glutamine, and 100 μg/ml penicillin and streptomycin, and plated at 1×10^6 cells/well into 24-well Primaria tissue culture plates (Falcon). Cultures were maintained for 24 h at 37° C. under 5% CO2. 30 minutes prior to experimentation, culture medium was replaced by serum free Opti-MEM I medium, and all treatments were conducted in serum free Opti-MEM I medium as described.
RAW264.7 cells at approximately 70% confluence were kept in serum-free Opti-MEM I for 20 minutes prior to treatments. Cells were challenged with a concentration range of purified recombinant GAPDH (produced on site) to determine concentration-dependent responsiveness of inflammatory mediator production. The concentration range consisted of seven concentrations of GAPDH in a five-fold dilution series (50 μg/ml, 10 μg/ml, 2 μg/ml, 0.4 μg/ml, 0.08 μg/ml, 0.016 μg/ml, 0 μg/ml). Cells were incubated at 37° C. and 5% CO2 for 4 hours (TNF). After treatment, the media was harvested and transferred to tubes, and M-cell lysis reagent was applied to the cells. […] The media samples were applied to Enzyme-Linked ImmunoSorbent Assays (ELISA) directed against mouse-TNF (all ELISA reagents were obtained from R+D systems). These ELISA plates were set up and run according to the manufacturer's recommendations. Briefly, samples were incubated overnight in the ELISA plate on a rocker at 4° C. Plates were washed 3× with phosphate-buffered saline supplemented with 0.05% TWEEN-20, and detection antibody diluted at 1:2000 in 1% bovine serum albumin (BSA) was applied to the plates for 2 hours. The plates were washed again as above, and strepavidin-HRP diluted at 1:2000 in 1% BSA was applied to the plates for 15 minutes. The plates were washed again as above, then developed by applying substrate reagent to each well. Reactions were stopped by adding 2M H2SO4 when the standard curve had become obvious, typically 8 to 10 minutes.

IκBα = experiment: RAW264.7 cells challenged with GAPDH or LPS, IκBα degradation (NF-κB pathway) by Western blot; assay type: cell-based, murine; conditions: 50 μg/ml GAPDH or 20 ng/ml LPS, time-course 0-180 min, FIG. 4
Protocol: (§1) RAW264.7 cells at approximately 70% confluence were kept in serum-free Opti-MEM I for 20 minutes prior to treatments. Cells were challenged with either GAPDH or LPS in a time-course with […] time points (180 min, 120 min, 60 min, 30 min, 15 min, and 0 min). The GAPDH treatment consisted of purified GAPDH diluted to 50 μg/ml in Opti-MEM I. The LPS treatment consisted of LPS (sonicated approximately 30 minutes before use) diluted to 20 ng/ml into Opti-MEM I. Treatments used for time-course experiments were incubated in a 37° C. water bath to maintain culture temperature between time points and sonicated for five minutes before use. […] Bound IκBα antibody was detected using a 1:2000 dilution of HRP-conjugated anti-mouse IgG in 2.5% milk; bound JNK antibody was detected using a 1:2000 dilution of HRP-conjugated anti-rabbit IgG in 2.5% milk. […]
(§2) RAW264.7 macrophage-like cells were challenged with either 50 μg/ml GAPDH or 20 ng/ml LPS in a time-course consisting of six time points ranging from 180 min to 0 min. […] Protein assays were conducted on cell lysates in order to standardize the quantity of protein loaded into each well of SDSPAGE gels for separation. […]

JNK = experiment: RAW264.7 cells challenged with GAPDH or LPS, JNK activation by Western blot; assay type: cell-based, murine; conditions: 50 μg/ml GAPDH or 20 ng/ml LPS
Protocol: as §1, §2

Substance	inflammatory cytokine response from human blood (human whole blood; FIG. 8)	interaction of inflammatory response with LPS (human whole blood; human blood, FIG. 8)	sickness by clinical scoring parameters (piloerection, closed eyes, diarrhea, tremoring, activity, relative temperature) (mice)	inflammatory responses from cultured macrophages (cultured macrophages)	TNF release (RAW264.7 cells)	TNF release (Peritoneal macrophages; RAGE deficient macrophages)	TNF release (Peritoneal macrophages; TLR2 deficient macrophages)	TNF response (Peritoneal macrophages; TLR4 deficient macrophages)	TNF release (Peritoneal macrophages; wild type macrophages)	basal level of IκBα (degradation) (IκBα)	increase in activated JNK levels (JNK; 30 minutes after challenge)	increase in activated JNK levels (JNK; 60 minutes after challenge)	plasma TNF levels (human whole blood; 10 μg/ml challenge, four hours, human whole blood, FIG. 5)
GST-GAPDH: purified recombinant GST-GAPDH, a stable tetramer	elicit inflammatory cytokine response	synergistic with LPS	cause sickness	elicits inflammatory responses	–	–	–	–	–	–	–	–	–
GAPDH: purified recombinant human GAPDH (produced on site), tested as candidate inflammatory cytokine	–	–	–	–	approximately 2250 pg/mg of cellular protein	approximately 4500 pg TNF/mg cell protein	~5000 pg TNF/mg cell protein	did not mount a significant response	approximately 6000 pg TNF/mg cellular protein	decreased dramatically and was nearly undetectable by 30 minutes post treatment	approximately eight-fold	approximately fifteen-fold	approximately 450 pg/ml
